From paper PMC8733726, “Dioctanoyl Ultrashort Tetrabasic β-Peptides Sensitize Multidrug-Resistant Gram-Negative Bacteria to Novobiocin and Rifampicin” (Frontiers in Microbiology, 2021)
In brackets after ≈: the same amount, converted by molar mass. Like-named read-outs stand apart in the source and are kept apart here.

What was measured:
in vitro [1] = format: cell-based; settings: human
Experimental: The degree of hemolysis induced by dUSTBβPs was determined by the amount of hemoglobin released from human erythrocytes upon incubation. Fresh human blood supplied by a commercial vendor was obtained from normal healthy volunteers following informed consent. The agent of interest was serially diluted in vehicle consisting of phosphate-buffered saline (PBS), saline, 5% glucose, or equivalents. The samples were incubated with gentle mixing at 37°C for 45 min and were subsequently centrifuged. The supernatant (plasma layer) was removed and centrifuged once more to completely pellet the cells. The plasma layer was diluted with Drabkin’s reagent and analyzed at a wavelength of 540 nm. Experiments were conducted in triplicates, and a calibration curve prepared by diluting blood (after addition of vehicle) was used to quantitate heme release. The vehicle or Triton X-100 were used as negative or positive controls, respectively.

P. aeruginosa PAO1 = format: cell-based, Pseudomonas aeruginosa; settings: PAO1, 18 h
Experimental: (§1) The in vitro antibacterial activities of dUSTBβPs were evaluated using microbroth dilution susceptibility test, in accordance with the Clinical and Laboratory Standards Institute (CLSI) guidelines ([Clinical and Laboratory Standards Institute, 2019]). Overnight-grown bacterial culture diluted in saline to 0.5 McFarland turbidity was successively diluted 1:50 in Mueller-Hinton broth (MHB) to achieve a final concentration of 5 × 10^5 colony forming units (CFU)/mL for inoculation. The agents were serially diluted 2-fold in MHB on a 96-well plate; mixed with bacterial inoculum of equal volumes, and incubated at 37°C for 18 h. Antibacterial activity was determined by the minimum inhibitory concentration (MIC), which is the lowest concentration of agent required for inhibition of visible bacterial growth in the form of turbidity. Confirmation of turbidity was done using an EMax Plus microplate reader (Molecular Devices, United States) at a wavelength of 590 nm. Wells comprising MHB alone or MHB inoculated with bacteria were used as negative or positive controls, respectively.

A. baumannii ATCC 17978 = format: cell-based, Acinetobacter baumannii; settings: ATCC 17978, 18 h
Experimental: as §1

E. coli ATCC 25922 = format: cell-based, Escherichia coli; settings: ATCC 25922, 18 h
Experimental: as §1

[2] = system: MDR clinical isolates of A. baumannii; format: cell-based, Acinetobacter baumannii; settings: MDR clinical isolates of, 18 h
Experimental: (§2) The adjuvant activities of dUSTBβPs were evaluated using checkerboard assay as previously described ([Berry et al., 2019]). Overnight-grown bacterial culture diluted in saline to 0.5 McFarland turbidity was successively diluted 1:50 in MHB to achieve a final concentration of 5 × 10^5 CFU/mL for inoculation. The antibiotic and adjuvant were serially diluted 2-fold along the x-axis and y-axis, respectively, resulting in varying concentrations of both agents in each well. Subsequently, the 96-well plate was incubated with equal volumes of bacterial inoculum at 37°C for 18 h. Confirmation of turbidity was done using an EMax Plus microplate reader (Molecular Devices, United States) at a wavelength of 590 nm. Wells comprising MHB alone or in the presence of bacterial cells were used as negative or positive controls, respectively. Fractional inhibitory concentration index (FICI) is determined by adding the FICs of both antibiotic and adjuvant. The FIC of the antibiotic is calculated by dividing the MIC of the antibiotic in the presence of the adjuvant by the MIC of the antibiotic alone. Similarly, the FIC of the adjuvant is calculated by dividing the MIC of the adjuvant in the presence of the antibiotic by the MIC of the adjuvant alone. FICI ≤ 0.5, 0.5 < x ≤ 4, and >4 were deemed synergistic, additive, and antagonistic, respectively ([Meletiadis et al., 2010]).

in vitro [3] = settings: human, plasma
Experimental: Stability of dUSTBβP 3 was evaluated in human plasma. […] The supernatant was analyzed by HPLC-tandem mass spectrometry using selected reaction monitoring. The % compound remaining was determined by comparing peak areas at different time points to time zero. Assuming first-order kinetics, the half-life was extrapolated from the slope of the initial linear range of the logarithmic curve of compound remaining over time. Experiments were performed in duplicates, and the reference compounds include propantheline and propoxycaine.

[4] = system: wild-type P. aeruginosa PAO1; test: microbe, parasite or virus in culture; format: cell-based, Pseudomonas aeruginosa; settings: PAO1; for MICcombo: antibiotic with dUSTBβP 3 at 8 μg/mL; for MIC: Pseudomonas aeruginosa, 18 h, antibiotic alone (Supplementary Table 7), read-out: MICantibiotic
From the text: as §2, with “Overnight-grown” for “The adjuvant activities of dUSTBβPs were evaluated using checkerboard assay as previously described ([Berry et al., 2019]). Overnight-grown”, “Subsequently, the 96-well plate was incubated with equal volumes of bacterial inoculum at 37°C for 18 h.” left out, “alone.” for “alone. FICI ≤ 0.5, 0.5 < x ≤ 4, and >4 were deemed synergistic, additive, and antagonistic, respectively ([Meletiadis et al., 2010]).”

[5] = system: wild-type A. baumannii ATCC 17978; test: Checkerboard assay; format: cell-based, Acinetobacter baumannii; settings: ATCC 17978; for MICcombo: antibiotic with dUSTBβP 3 at 8 μg/mL; for MIC: Acinetobacter baumannii, ATCC17978, 18 h, antibiotic alone (Supplementary Table 7), read-out: MICantibiotic
From the text: as §2, with “Overnight-grown” for “The adjuvant activities of dUSTBβPs were evaluated using checkerboard assay as previously described ([Berry et al., 2019]). Overnight-grown”, “Subsequently, the 96-well plate was incubated with equal volumes of bacterial inoculum at 37°C for 18 h.” left out, “alone.” for “alone. FICI ≤ 0.5, 0.5 < x ≤ 4, and >4 were deemed synergistic, additive, and antagonistic, respectively ([Meletiadis et al., 2010]).”

[6] = system: wild-type E. coli ATCC 25922; test: microbe, parasite or virus in culture; format: cell-based, Escherichia coli; settings: ATCC 25922; for MICcombo: antibiotic with dUSTBβP 3 at 8 μg/mL; for MIC: Escherichia coli, ATCC25922, 18 h, antibiotic alone (Supplementary Table 7), read-out: MICantibiotic
Outline: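 Antibiotic and adjuvant were serially diluted 2-fold against each other in MHB, inoculated at 5 × 10^5 CFU/mL and incubated at 37°C for 18 h. Growth was read as turbidity at 590 nm. FICI was the sum of each agent's combination MIC divided by its MIC alone; ≤ 0.5 counted as synergy.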

[7] = system: MDR P. aeruginosa clinical isolates; test: Resistance phenotype (MICs of antibiotics) of MDR clinical isolates; format: cell-based, Pseudomonas aeruginosa; settings: Pseudomonas aeruginosa
[8] = system: MDR A. baumannii clinical isolates; test: as above; format: cell-based, Acinetobacter baumannii; settings: Acinetobacter baumannii, read-out: MIC
[9] = system: MDR E. coli clinical isolates; test: as above; format: cell-based, Escherichia coli; settings: Escherichia coli, read-out: MIC
[10] = system: MDR K. pneumoniae clinical isolates; test: as above; format: cell-based, Klebsiella pneumoniae; settings: Klebsiella pneumoniae, read-out: MIC
[11] = system: MDR E. cloacae clinical isolates; test: as above; format: cell-based, Enterobacter cloacae; settings: Enterobacter cloacae, read-out: MIC

| SMILES | hemolysis at 45 min, 1.5625 µM (in vitro [1]) [%] | hemolysis at 45 min, 3.125 µM (in vitro [1]) [%] | hemolysis at 45 min, 6.25 µM (in vitro [1]) [%] | MICcombo [4] [µg/mL] | MIC [4] [µg/mL] | MICcombo [5] [µg/mL] | MIC [5] [µg/mL] | MICcombo [6] [µg/mL] | MIC [6] [µg/mL] | MIC ([7]; 262-101856, read-out: MIC) [µg/mL] | MIC ([7]; 264-104354, read-out: MIC) [µg/mL] | MIC ([7]; 91433, read-out: MIC) [µg/mL] | MIC ([8]; LAC-4) [µg/mL] | MIC ([9]; 94393 (mcr-1 +)) [µg/mL] | MIC ([9]; 94474 (mcr-1 +)) [µg/mL] | MIC [9]; 107115 [µg/mL] | MIC [10]; 113250 [µg/mL] | MIC [10]; 113254 [µg/mL] | MIC [10]; 116381 [µg/mL] | MIC [11]; 117029 [µg/mL] | further results |
| --- | --- | --- | --- | --- | --- | --- | --- | --- | --- | --- | --- | --- | --- | --- | --- | --- | --- | --- | --- | --- | --- |
| CCCCCCCC(=O)NC(CCCCN)CC(=O)NCCCN(CCCNC(=O)CC(CCCCN)NC(=O)CCCCCCC)CC(=O)NC(CCCCN)CC(N)=O (stereo not shown) [dUSTBβP 2] | 3.33 ± 0.12 | 3.28 ± 0.21 | 3.23 ± 0.11 | – | – | – | – | – | – | – | – | – | – | – | – | – | – | – | – | – | hemolysis at 45 min, 12.5 µM (in vitro [1]): 3.22 ± 0.2%; hemolysis at 45 min, 25 µM (in vitro [1]): 3.29 ± 0.14%; hemolysis at 45 min, 50 µM (in vitro [1]): 3.24 ± 0.15%; hemolysis at 45 min, 100 µM (in vitro [1]): 3.26 ± 0.1%; hemolysis at 45 min, 200 µM (in vitro [1]): 3.21 ± 0.13%; MIC (P. aeruginosa PAO1): >128 µg/mL; MIC (A. baumannii ATCC 17978): >128 µg/mL; MIC (E. coli ATCC 25922): >128 µg/mL |
| CCCCCCCC(=O)N[C@@H](CCCNC(=N)N)C(=O)NCCCN(CCCNC(=O)[C@H](CCCNC(=N)N)NC(=O)CCCCCCC)CC(=O)N[C@@H](CCCNC(=N)N)C(N)=O [di(C8-Arg)-Nbap-Arg-NH2] | – | – | – | – | – | – | – | – | – | – | – | – | – | – | – | – | – | – | – | – | MIC of compound alone [2]: 16 µg/mL; remaining at 2 h, 1 μM (in vitro [3]): 39.5 ± 7.4% |
| O=C(N[C@H](CO)[C@H](O)c1ccc([N+](=O)[O-])cc1)C(Cl)Cl [Chloramphenicol] | – | – | – | 2 | 32 (≈ 99 µM) | 64 | 128 | 1 | 2 | 2050 (≈ 6340 µM) | 4100 (≈ 12700 µM) | 8 (≈ 24.8 µM) | 32 (≈ 99 µM) | 4 (≈ 12.4 µM) | 4 (≈ 12.4 µM) | 512 (≈ 1580 µM) | 4 (≈ 12.4 µM) | 2 (≈ 6.19 µM) | > 512 | 8 (≈ 24.8 µM) | MIC ([7]; 259-96196): 1020 µg/mL (≈ 3170 µM); MIC [8]; 110193: 128 µg/mL (≈ 396 µM); MIC ([8]; AB027): 128 µg/mL (≈ 396 µM); MIC ([8]; AB031): 128 µg/mL (≈ 396 µM) |
| CNC(C)C1CCC(N)C(OC2C(N)CC(N)C(OC3OCC(C)(O)C(NC)C3O)C2O)O1 (stereo not shown) [Gentamicin] | – | – | – | 2 | 2 (≈ 4.19 µM) | > 1 | > 1 | 1 | 2 | > 32 | > 32 | 32 (≈ 67 µM) | > 4 | ≤ 0.5 | 16 (≈ 33.5 µM) | > 32 | ≤ 0.5 | ≤ 0.5 | ≤ 0.5 | ≤ 0.5 | MIC ([7]; 259-96196, read-out: MIC): > 32 µg/mL; MIC ([8]; AB027): 32 µg/mL (≈ 67 µM); MIC ([8]; AB031): < 0.5 µg/mL; MIC [11]; 118564: 1 µg/mL (≈ 2.09 µM); MIC [11]; 121187: > 32 µg/mL |
| C[C@H]1c2cccc(O)c2C(=O)C2=C(O)[C@]3(O)C(=O)C(C(N)=O)=C(O)[C@@H](N(C)C)[C@@H]3[C@@H](O)[C@@H]21 [Doxycycline] | – | – | – | 0.5 | 8 (≈ 18 µM) | 0.25 | 0.25 | 0.25 | 1 | 1020 (≈ 2300 µM) | 64 (≈ 144 µM) | 32 (≈ 72 µM) | < 4 | 4 (≈ 9 µM) | > 32 | > 32 | 2 (≈ 4.5 µM) | 128 (≈ 288 µM) | 1 (≈ 2.25 µM) | > 32 | MIC ([7]; 259-96196, read-out: MIC): 32 µg/mL (≈ 72 µM); MIC ([7]; 114228, read-out: MIC): 16 µg/mL (≈ 36 µM); MIC [11]; 118564: 4 µg/mL (≈ 9 µM); MIC [11]; 121187: > 32 µg/mL |
| CCCCCCCC(=O)NC(CCCN)CC(=O)NCCCN(CCCNC(=O)CC(CCCN)NC(=O)CCCCCCC)CC(=O)NC(CCCN)CC(N)=O (stereo not shown) [dUSTBβP 1] | 3.11 ± 0.07 | 3.12 ± 0.09 | 3.13 | – | – | – | – | – | – | – | – | – | – | – | – | – | – | – | – | – | hemolysis at 45 min, 12.5 µM (in vitro [1]): 3.16 ± 0.04%; hemolysis at 45 min, 25 µM (in vitro [1]): 3.12 ± 0.05%; hemolysis at 45 min, 50 µM (in vitro [1]): 3.17 ± 0.06%; hemolysis at 45 min, 100 µM (in vitro [1]): 3.35 ± 0.17%; hemolysis at 45 min, 200 µM (in vitro [1]): 2.26 ± 0.19%; MIC (P. aeruginosa PAO1): >128 µg/mL; MIC (A. baumannii ATCC 17978): >128 µg/mL; MIC (E. coli ATCC 25922): >128 µg/mL |
